According to patent US10098350B2, “Fungicidal amides” (E. I. DU PONT DE NEMOURS AND COMPANY, priority 2013, dated 2018):

How the values were obtained:
Type in all cases: in vivo
Botrytis cinerea = assay: Test A: tomato seedlings sprayed with test suspension, inoculated with Botrytis cinerea (gray mold), visual disease rating
Source text: (§1) General protocol for preparing test suspensions for Tests A-E: the test compounds were first dissolved in acetone in an amount equal to 3% of the final volume and then suspended at the desired concentration (in ppm) in acetone and purified water (50/50 mix by volume) containing 250 ppm of the surfactant Trem® 014 (polyhydric alcohol esters). The resulting test suspensions were then used in Tests A-E. Samples were applied to plants at either a 10 ppm (**), 40 ppm, 50 ppm (*) or 200 ppm (#) test solution to the point of run-off on the test plants with the equivalent of a rate of 40 g ai/ha, 160 g ai/ha, 200 g ai/ha, or 800 g ai/ha, respectively.
The test suspension was sprayed to the point of run-off on tomato seedlings. The following day the seedlings were inoculated with a spore suspension of Botrytis cinerea (the causal agent of gray mold on many crops) and incubated in a saturated atmosphere at 20° C. for 48 h, and moved to a growth chamber at 27° C. for 2 days, after which time visual disease ratings were made.
(§2) Results for Tests A-E are given in Table A. In the Table, a rating of 100 indicates 100% disease control and a rating of 0 indicates no disease control (relative to the controls). A dash (-) indicates no test results.

[1] = test system: Stagonospora nodorum (also known as Septoria nodorum); assay: Test B: wheat seedlings sprayed with test suspension, inoculated with Stagonospora nodorum (wheat glume blotch), visual disease rating
Source text: as §1
The test suspension was sprayed to the point of run-off on wheat seedlings. The following day the seedlings were inoculated with a spore suspension of Stagonospora nodorum (also known as Septoria nodorum; the causal agent of wheat glume blotch) and incubated in a saturated atmosphere at 20° C. for 48 h, and then moved to a growth chamber at 20° C. for 6 days, after which time visual disease ratings were made.
as §2

Septoria tritici = assay: Test C: wheat seedlings sprayed with test suspension, inoculated with Septoria tritici (wheat leaf blotch), visual disease rating
Outline: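 Wheat seedlings sprayed to run-off with compound suspended in acetone/water with 250 ppm Trem 014, at 10, 40, 50 or 200 ppm (40–800 g ai/ha). Inoculated with Septoria tritici spores the next day, held 48 h saturated at 24 °C, then 21 days at 20 °C. Visual rating 0–100% disease control relative to controls.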

[2] = test system: Puccinia recondite f. sp. tritici; assay: Test D: wheat seedlings sprayed with test suspension, inoculated with Puccinia recondite f. sp. tritici (wheat leaf rust), visual disease rating
Outline: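 Wheat seedlings were sprayed to run-off with compound suspended in 50/50 acetone–water containing 250 ppm Trem 014, at 10-200 ppm (40-800 g ai/ha). They were inoculated with rust spores the next day, then kept 24 h saturated at 20 °C and 6 days at 20 °C. Scores are visual % disease control versus untreated controls.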

[3] = test system: Erysiphe graminis f. sp. tritici; assay: Test E: wheat seedlings sprayed with test suspension, inoculated with Erysiphe graminis f. sp. tritici (wheat powdery mildew), visual disease rating
Outline: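 Wheat seedlings sprayed to run-off with compound suspension (acetone 3%, acetone/water 50/50 with 250 ppm Trem 014) at 10, 40, 50 or 200 ppm (40–800 g ai/ha), inoculated next day with spore dust. Incubated 7 or 8 days at 20° C, then rated visually as % disease control relative to controls (0–100).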

[4] = Cmpd. No. unmarked, 100 = 100% disease control, 0 = no control relative to controls
[5] = Cmpd. No. marked '*' (other test rate; meaning of mark not shown)
[6] = Cmpd. No. marked '#' (other test rate; meaning of mark not shown)

Row | Molecule | Test A rating (% disease control) (Botrytis cinerea; [4]) | Test B rating (% disease control) [1, 4] | Test C rating (% disease control) (Septoria tritici; [4]) | Test D rating (% disease control) [2, 4] | Test E rating (% disease control) [3, 4] | Test A rating (% disease control) (Botrytis cinerea; [5]) | Test B rating (% disease control) [1, 5] | Test C rating (% disease control) (Septoria tritici; [5]) | Test D rating (% disease control) [2, 5] | Test E rating (% disease control) [3, 5] | Test A rating (% disease control) (Botrytis cinerea; [6]) | Test B rating (% disease control) [1, 6] | Test C rating (% disease control) (Septoria tritici; [6]) | Test D rating (% disease control) [2, 6] | Test E rating (% disease control) [3, 6]
1 | CC(c1ccc(-n2ccc(C(F)(F)F)n2)cc1Cl)N(C(=O)c1cn(C)nc1C(F)F)C1CC1 (stereo not drawn) [compound 19] | 0% | 99% | 75% | 85% | 64% |  |  |  |  |  |  |  |  |  | 
2 | Cn1cc(C(=O)N(Cc2cnc(-n3ccc(C(F)(F)F)n3)cc2Cl)C2CC2)c(C(F)(F)F)n1 [Compound 148] |  |  |  |  |  | 0% | 0% | 9% | 0% | 0% |  |  |  |  | 
3 | Cn1cc(C(=O)N(Cc2ccc(-n3cc(Cl)cn3)cn2)C2CC2)c(C(F)F)n1 [compound 6] | 0% | 0% | 9% | 0% | 0% |  |  |  |  |  | 0% | 98% | 67% | 28% | 13%
4 | Cn1cc(C(=O)N(Cc2cccc(-n3ccc(C(F)(F)F)n3)c2)C2CC2)c(C(F)F)n1 [Compound 9, N-cyclopropyl-3-(difluoromethyl)-1-methyl-N-[[3-[3-(trifluoromethyl)-1H-pyrazol-1-yl]phenyl]methyl]-1H-pyrazole-4-carboxamide] | 9% | 93% | 96% | 9% | 81% |  |  |  |  |  | 39% | 99% | 100% | 74% | 96%
5 | Cc1cc(-n2ccc(C(F)(F)F)n2)cc(CN(C(=O)c2cn(C)nc2C(F)F)C2CC2)c1F [compound 29] | 0% | 94% | 83% | 68% | 48% |  |  |  |  |  |  |  |  |  | 
6 | CC(c1ccc(-n2ccc(C(F)(F)F)n2)nc1)N(C(=O)c1cn(C)nc1C(F)F)C1CC1 (stereo not drawn) [Compound 1, N-cyclopropyl-3-(difluoromethyl)-1-methyl-N-[1-[6-[3-(trifluoromethyl)-1H-pyrazol-1-yl]-3-pyridinyl]ethyl]-1H-pyrazole-4-carboxamide] | 0% | 0% | 86% | 0% | 96% |  |  |  |  |  | 0% | 69% | 93% | 28% | 98%
7 | Cc1ccsc1C(=O)N(Cc1cccc(-n2ccc(C(F)(F)F)n2)c1)C1CC1 [Compound 152] | 0% | 0% | 0% | 0% | 0% |  |  |  |  |  |  |  |  |  | 
8 | Cn1cc(C(=O)N(Cc2cc(-n3ccc(C(F)(F)F)n3)ccc2[N+](=O)[O-])C2CC2)c(C(F)F)n1 [compound 13] | 0% | 0% | 0% | 32% | 0% |  |  |  |  |  |  |  |  |  | 
9 | Cn1cc(C(=O)N(Cc2ccc(-n3cc(Cl)cn3)cc2Cl)C2CC2)c(C(F)F)n1 [compound 20] | 32% | 99% | 94% | 79% | 40% |  |  |  |  |  |  |  |  |  | 
10 | Cn1cc(C(=O)N(Cc2ccc(-n3cc(Br)cn3)cc2Cl)C2CC2)c(C(F)F)n1 [Compound 10] | 0% | 99% | 38% | 86% | 0% |  |  |  |  |  |  |  |  |  | 
11 | Cn1cc(C(=O)N(Cc2ccc(-n3ccc(-c4ccccc4)n3)cn2)C2CC2)c(C(F)F)n1 [compound 8] | 0% | 0% | 27% | 0% | 0% |  |  |  |  |  | 0% | 0% | 88% | 74% | 0%
12 | Cn1cc(C(=O)N(Cc2ccc(-n3ccc(C(F)(F)F)n3)cc2Cl)C2CC2)c(C(F)(F)F)n1 [Compound 35] | 0% | 0% | 89% | 9% | 0% |  |  |  |  |  |  |  |  |  | 
13 | N-cyclopropyl-3-(difluoromethyl)-1-methyl-N-[[3-[3-(trifluoromethyl)-1H-pyrazol-1-yl]phenyl]methyl]-1H-pyrazole-4-carboxamide [Compound 9] | 0% | 0% | 43% | 0% | 0% |  |  |  |  |  | 0% | 0% | 96% | 0% | 43%
14 | Cc1nc(C(F)(F)F)c(C(=O)N(Cc2ccc(-n3ccc(C(F)(F)F)n3)cc2Cl)C2CC2)s1 [Compound 151] | 23% | 0% | 87% | 23% | 0% |  |  |  |  |  |  |  |  |  | 
15 | Cn1cc(C(=O)N(Cc2ccc(-n3ccc(C(F)(F)F)n3)cc2Cl)C2CC2)c(C(F)F)n1 [compound 11] | 0% | 89% | 100% | 54% | 43% |  |  |  |  |  |  |  |  |  | 
16 | Cn1cc(C(=O)N(Cc2cccc(-n3ccc(C(F)(F)F)n3)c2C(F)(F)F)C2CC2)c(C(F)F)n1 [compound 41] | 0% | 0% | 94% | 23% | 40% |  |  |  |  |  |  |  |  |  | 
17 | Cc1nc(C(F)(F)F)c(C(=O)N(Cc2cccc(-n3ccc(C(F)(F)F)n3)c2)C2CC2)s1 [Compound 150] | 0% | 0% | 48% | 9% | 0% |  |  |  |  |  |  |  |  |  | 
18 | CC(c1ccc(C(F)(F)F)c(-n2ccc(C(F)(F)F)n2)c1)N(C(=O)c1cn(C)nc1C(F)F)C1CC1 (stereo not drawn) [compound 21] | 0% | 0% |  | 0% | 64% |  |  |  |  |  |  |  |  |  | 
19 | CC(c1cc(Cl)cc(-n2ccc(C(F)(F)F)n2)c1)N(C(=O)c1cn(C)nc1C(F)F)C1CC1 (stereo not drawn) [compound 22] | 0% | 90% |  | 55% | 81% |  |  |  |  |  |  |  |  |  | 
20 | Cn1cc(C(=O)N(Cc2cc(-n3ccc(C(F)(F)F)n3)ccc2C2CC2)C2CC2)c(C(F)F)n1 [compound 33] | 0% | 98% |  | 68% | 94% |  |  |  |  |  |  |  |  |  | 
21 | Cn1nc(C(F)F)c(C(=O)N(Cc2ccc(-n3ccc(C(F)(F)F)n3)cc2C(F)(F)F)C2CC2)c1F [compound 37] | 0% | 100% |  | 97% | 99% |  |  |  |  |  |  |  |  |  | 
